Key:
rat CD73 = tested on: rat CD73; design: method as in Baqi et al., 2010; conditions: ref Baqi et al., 2010; cited from earlier work
human NTPDase2 = biological target: T1, human NTPDase2 (Homo sapiens, UniProt Q9Y5L3); assay: Malachite green assay, human NTPDase2; type: biochemical; conditions: 2 μM compound; 100 µM ATP; COS-7 membrane preparation; read-out: % inhibition at 2 μM concentration, NTPDase2
T1 construct: expressed in transfected cells; host or cells: COS-7 cells (membrane preparation)
T1 sequence (Q9Y5L3 1-495): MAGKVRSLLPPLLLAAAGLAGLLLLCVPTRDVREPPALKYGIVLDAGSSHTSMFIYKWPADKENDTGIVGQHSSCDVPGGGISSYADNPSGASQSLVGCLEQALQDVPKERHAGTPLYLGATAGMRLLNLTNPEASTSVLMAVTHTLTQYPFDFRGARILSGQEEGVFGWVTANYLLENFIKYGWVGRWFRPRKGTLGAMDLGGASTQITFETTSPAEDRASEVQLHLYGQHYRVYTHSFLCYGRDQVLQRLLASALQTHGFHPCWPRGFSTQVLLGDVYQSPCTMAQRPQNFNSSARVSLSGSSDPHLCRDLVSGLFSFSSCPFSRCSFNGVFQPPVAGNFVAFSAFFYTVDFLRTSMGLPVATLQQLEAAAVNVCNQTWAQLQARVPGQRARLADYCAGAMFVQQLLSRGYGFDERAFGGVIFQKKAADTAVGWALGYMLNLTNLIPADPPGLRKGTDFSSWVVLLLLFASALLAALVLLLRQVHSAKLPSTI
Summary of the method: (§1)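 COS-7 membranes expressing each NTPDase were preincubated with compound for 5 min at 37 °C, pH 7.4 HEPES buffer with 2 mM CaCl2/1 mM MgCl2. ATP was 50 µM for NTPDase1 and 100 µM for -2, -3, -8; reaction ran 15 min at 37 °C. Released phosphate read by malachite green at 600 nm; screen at 2 µM, IC50 over 0.03–30 µM in 2% DMSO.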

human NTPDase3 = biological target: T2, human NTPDase3 (Homo sapiens, UniProt O75355); assay: Malachite green assay, human NTPDase3; type: biochemical; conditions: 2 μM compound; 100 µM ATP; COS-7 membrane preparation; read-out: % inhibition at 2 μM concentration, NTPDase3
T2 construct: expressed in transfected cells; host or cells: COS-7 cells (membrane preparation)
T2 sequence (O75355 1-529): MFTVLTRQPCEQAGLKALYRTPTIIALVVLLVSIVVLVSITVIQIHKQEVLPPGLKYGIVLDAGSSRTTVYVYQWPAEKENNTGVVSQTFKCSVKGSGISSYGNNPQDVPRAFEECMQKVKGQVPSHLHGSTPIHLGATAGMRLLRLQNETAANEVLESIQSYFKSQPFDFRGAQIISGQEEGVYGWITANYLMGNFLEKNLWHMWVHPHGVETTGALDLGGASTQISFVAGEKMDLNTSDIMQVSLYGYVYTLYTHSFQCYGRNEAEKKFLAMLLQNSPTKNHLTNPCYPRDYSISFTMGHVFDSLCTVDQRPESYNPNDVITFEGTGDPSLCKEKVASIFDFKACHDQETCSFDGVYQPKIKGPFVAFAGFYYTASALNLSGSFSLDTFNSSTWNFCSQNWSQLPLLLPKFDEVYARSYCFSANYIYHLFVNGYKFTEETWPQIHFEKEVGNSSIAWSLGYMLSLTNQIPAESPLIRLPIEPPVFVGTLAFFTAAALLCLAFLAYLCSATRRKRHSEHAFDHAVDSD
Summary of the method: as §1

inhibition at 2 µM (human NTPDase2): 31% | inhibition at 2 µM (human NTPDase3): -4%
Structure (SMILES): Nc1c(S(=O)(=O)O)cc(Nc2cccc3ccccc23)c2c1C(=O)c1ccccc1C2=O [Compound 15]
IC50 (rat CD73): 530 nM
